Laboratory results from ChEMBL document CHEMBL1148229, “Synthesis of a novel intercalator based on 2,2'-binaphthalene bearing dimethylammonium groups” (Bioorg Med Chem Lett, 2004).

Key:
Nucleic Acid [1] = assay: Intrinsic association constant for DNA; type: nucleic-acid assay, Bos taurus
Nucleic Acid [2] = assay: Melting temperature (Tm) of DNA in the presence of compound (5 uM); type: functional; conditions: Bos taurus
Nucleic Acid [3] = assay: Apparent association constant for DNA; type: nucleic-acid assay, Bos taurus
Nucleic Acid [4] = assay: Melting temperature (Tm) of DNA in the absence of the compound; type: functional; conditions: Bos taurus
[5] = Concentration of compound required for reduction of the fluorescence of ethidium bromide; type: functional

Ki (Nucleic Acid [1]) [M⁻¹]	Ki (Nucleic Acid [3]) [M⁻¹]	SMILES	Tm (Nucleic Acid [2]) [°C]	Tm (Nucleic Acid [4]) [°C]	C50 [5] [µM]
2200	–	CNc1ccc2ccccc2c1	–	–	–
800000	100000	CN(C)Cc1cccc2ccc(-c3ccc4cccc(CN(C)C)c4c3)cc12	81.2	75	7.2

SMILES	Ki (Nucleic Acid [1]) [M⁻¹]	Ki (Nucleic Acid [3]) [M⁻¹]	Tm (Nucleic Acid [2]) [°C]	Tm (Nucleic Acid [4]) [°C]	C50 [5] [µM]
CC[n+]1c(-c2ccccc2)c2cc(N)ccc2c2ccc(N)cc21.[Br-] [HOMIDIUM BROMIDE]	360000	–	–	–	–
